# Assays:
# human progenitor cells = assay: Proteoglycan biosynthesis (35S-GAG) in 2 day monolayer cultures; type: cell-based; conditions: monolayers; FIG. 11
# Source text: FIG. 11. A bar graph of the concentration dependent effects of Pentosan Polysulfate (PPS), on the biosynthesis of Proteoglycans (PGs) as determined by the incorporation of radioactively labelled sulfate into the sulfated glycosaminoglycans (^35S-GAG) of PGs after 2 day monolayer cultures of human progenitor cells. The data was expressed as ^35S-GAG radioactivity as decays per minute (DPM) normalised to DNA content. *=p<0.05; **=p<0.005; ***=p<0.0005.
# Murine Progenitor cells (cell lines C3H10T1/2 or ATDC5) purchased from RIKEN Cell Bank (Tsukuba, Japan) or human immunoselected Stro-1+ Progenitor cells (Mesoblast Ltd, Melbourne, Australia) were seeded into 50 mL plastic culture flasks containing 1:1 high glucose DMEM/Ham's F-12 medium (Invitrogen) supplemented with 10% FBS (Sigma) and incubated at 37° C., in 5% CO2. After confluence was reached, progenitor cells were released by trypsinization and harvested by centrifugation. Cells were inoculated to 96-well or 24-well plates at a density of 3×10^4 cells or 2×10^5 cells per well. […] The experiments were generally terminated after 48 hours incubation when proteoglycan biosynthesis was determined by measuring the incorporation of ^35SO4 into the glycosaminoglycans (^35S-GAGs) as described below.
# The data was expressed as ^35S-GAG radioactivity as decays per minute (DPM) normalised to DNA content. *=p<0.05; **=p<0.005; ***=p<0.0005.
# [1] = test system: Human immunoselected Stro-1+ Progenitor cells; assay: Hyaluronan biosynthesis, 3H-glucosamine incorporation, Superdex-S200 before/after Hyalase, 9 day micromass; type: cell-based
# Source text: FIG. 27. Chromatographic elution profiles showing the effects of polysulfated polysaccharides on the biosynthesis of Hyaluronan (HA) and by progenitor cells by measuring the incorporation of ^3H-glucosamine into HA. […] The % difference in areas under the profiles of the digested and pre-digested samples in the void volume fractions represents the amounts of ^3H-HA released into the media by the PPS concentration specified.
# Human immunoselected Stro-1+ Progenitor cells (Mesoblast Ltd, Melbourne, Australia) were established in micromass cultures in 24 well plates using the method described above but seeding the progenitor cells at a density of 7×10^5 cells/well. After 24 hours in culture the media was changed and replaced with DMEM culture medium containing 10% FCS and 25 μg/ml gentamicin containing PPS (Bene-Arzneimittel, Munich, […]) which had been sterilised through a 0.22 μm filter. The cultures were incubated in 5% CO2/95% moist air at 37° C. for 8 days with media changes containing the indicated concentrations of PPS every 3 days. On the 8th day ^3H-glucosamine was added to culture medium containing the indicated concentrations of PPS to provide a solution containing 1.0 μCi/ml which was added to each well. The plates were incubated for a further 24 h. At termination of the cultures on day 9, media was collected into 5 ml capped tubes and stored at 4° C. prior to size exclusion chromatography as described below.
# Two aliquots of 0.5 ml from each media sample were labelled A and B. 20 μl of 1 M acetic acid, pH 6.0 was added to all aliquots. 50 μl of reaction buffer (20 mM Na-acetate and 0.15 M NaCl, pH 6.0) was added to aliquot A and 50 μl of 5 TRU Streptomyces hyaluronidase (HYALASE) in reaction buffer was added to aliquot B. All samples were incubated at 60° C. for 3 h followed by boiling for 5 min to inactivate the added hyaluronidase. The samples were stored at −20° C. prior to gel filtration.
# A Gel filtration column prepacked with Superdex-S200 was used to isolate and identify ^3H-HA and ^3H-PGs in culture media. Media samples were routinely centrifuged at high speed on a bench Microfuge for 10 min immediately before loading to the column. Samples (200 μl of each) were injected into the column through sample loop and the column was eluted with PBS buffer (0.15 M NaCl, 0.05 M Na2PO4, pH 7.2) at the flow rate of 0.2 ml/1 min. The column eluent was collected at 1.0 ml/fraction for total of 186 fractions and radioactivity was determined using a β-scintillation counter.
substance,measurement,setting,value
pentosan polysulfate [PPS],chondrogenic effect (proteoglycan synthesis),human progenitor cells,chondrogenic promoting effect
same,3H-glucosamine radioactivity incorporated into HA (media),[1]; PPS 0.1 micrograms/mL (profile not shown),35.5%
same,levels of newly synthesized 3H-HA in the culture media,[1]; PPS 0.1 micrograms/mL and 1.0 micrograms/mL only,substantial increases
same,3H-glucosamine radioactivity incorporated into HA (media),"[1]; PPS 1 microgram/mL, FIG. 27C",49.6%
same,radioactivity in post digestion void volume fractions of PG monomers,"[1]; PPS 1 microgram/mL, FIG. 27C",50.4%
same,3H-glucosamine incorporated into HA (media),[1]; PPS 2.5 micrograms/mL,about 11%
same,PPS concentration of maximum synthesis of HA,"[1]; micromass cultures, media",1.0 micrograms/mL
same,biosynthesis of HA by cultured progenitor cells,"[1]; micromass, FIG. 27",stimulates the biosynthesis of HA
same,3H-glucosamine radioactivity found in the HA fractions (media),[1]; the lower concentration of PPS (FIG. 27B),15.1%

# Reference: patent US9888679B2, “Protection of progenitor cells and regulation of their differentiation” (Proteobioactives Pty Ltd, priority 2007, dated 2018)
